Assay results as given in patent US20250248944A1, “SOFTGEL CAPSULES HAVING A FILL COMPOSITION COMPRISING APPLE CIDER VINEGAR” (CAPTEK SOFTGEL INTERNATIONAL, INC., priority 2024, published 2025).

Columns and labels:
[1] = Compatibility of acetic acid sources with the gelatin and plasticizer matrix; type: physicochemical; details: acetic acid source tested individually
Method: Various sources of acetic acid were tested in the laboratory to determine their compatibility with the gelatin and plasticizer matrix.

[2] = in softgel liquid fill materials
Source text: The Bragg brand of apple cider vinegar hardshell capsules include sodium diacetate.

CC(=O)O.CC(=O)[O-].[Na+] [Sodium diacetate]
compatibility with the gelatin and plasticizer matrix (reaction observed) [1]: corroding a hole in the gelatin and causing leakage of the fill material
effect on softgel shell [2]: causes holes to form in the softgel shell

CC(=O)O.NCCCC[C@H](N)C(=O)O [Lysine acetate powder, Lysine acetate]
compatibility with the gelatin and plasticizer matrix (reaction observed) [1]: completely liquefied

CC(=O)[O-].CC(=O)[O-].[Ca+2] [Calcium acetate]
compatibility with the gelatin and plasticizer matrix (reaction observed) [1]: partially gelled up and liquified

CC(=O)[O-].CC(=O)[O-].[Zn+2] [Zinc acetate]
compatibility with the gelatin and plasticizer matrix (reaction observed) [1]: least reaction
